Test results as given in article PMC3435281 (PLoS ONE, 2012).

How the values were obtained:
[1] = target: wild-type AHR (pTarget-mAHR) (Mus musculus, UniProt P30561); test: DRE-luciferase in COS-1 cells transfected with wild-type mAHR
Method: Figure 4 Splenocytes from wild-type and AHR^d mice analyzed by qPCR for CYP1A1. […] After 4 hours they were analyzed by qPCR for CYP1A1 analysis. The curves are normalized from 0 to 100% response. […] Cos-1 cells were transfected with an AHR containing the same point mutation (valine for alanine) thought to be responsible for the low affinity of the AHR^d isoform compared to AHR^b, and compared to the wild-type AHR response. These cells also harbor a luciferase gene next to the DRE. C. Cos-1 cells were exposed to TCDD. […] The graphs represent normalized data from 0 response to 100% response. They are representative of 2 independent experiments.
These cells also harbor a luciferase gene next to the DRE. […] The data in this figure is normalized from 0 to 100% response.
After 4 hours of treatment, cells were assayed with dual luciferase® reporter assay system (Promega, Madison, WI). The expressed luciferase activity was measured by MicroLumat Plus luminometer (Berthold Technologies, Hartfordshire, UK).

[2] = tested on: CYP1A1 (induction through AHR^d); test: CYP1A1 qPCR in AHR^d splenocytes; details: AHR^d congenic on a C57BL/6J background, mouse
Method: As the above in vitro experiments were performed in cell lines, we next utilized AHR^b (C57BL/6J) and AHR^d congenic mice (on a C57BL/6J background). […] Normalized data was chosen to allow comparison of CYP1A1 upregulation to its maximum in AHR^b versus AHR^d mice.
Figure 4 Splenocytes from wild-type and AHR^d mice analyzed by qPCR for CYP1A1. […] After 4 hours they were analyzed by qPCR for CYP1A1 analysis. The curves are normalized from 0 to 100% response. […] Cos-1 cells were transfected with an AHR containing the same point mutation (valine for alanine) thought to be responsible for the low affinity of the AHR^d isoform compared to AHR^b, and compared to the wild-type AHR response. These cells also harbor a luciferase gene next to the DRE. C. Cos-1 cells were exposed to TCDD. […]
Spleen was harvested from mice at the time of euthanasia and single cell suspensions were made. […] The relative quantitation PCR for IDO1 (Mm00492586-m1) and GAPDH (4352339-E0806018) were performed in the Applied Biosystems 7900HT Fast Real-Time PCR System (Applied Biosystems), and TaqMan Universal PCR Master Mix (Applied Biosystems) was used as a reaction reagent. The relative quantitation PCR for Foxp3, CYP1A1, CYP1B1, and GAPDH were processed by the Bio-Rad iCycler (Bio-Rad) and iQ SYBR Green Supermix ([…]) was used as the reaction reagent.

[3] = tested on: AHR^d; design: method as in PMID 16242735; details: cited from earlier work
[4] = tested on: naïve T cells; test: Naïve T cells in Th17 conditions, IL-17 ELISA of supernatant; assay type: cell-based, mouse; details: TGF-β 4 ng/ml, IL-6 20 ng/ml, 3 days
[5] = tested on: naïve CD4^+ T cells; test: Naïve CD4+ T cells with TGF-β, flow cytometry of FoxP3 and CD39; assay type: cell-based, mouse; details: TGF-β 2 ng/ml with SU5416 250 nM, day 3
Text: An important role for the AHR in the immune system, and specifically T-cell differentiation, has been recognized and continues to be characterized in the literature, [7]. Some ligands of the AHR have the ability to enhance Treg differentiation from naïve T-cells (TCDD, kynurenine), while others direct differentiation towards Th17 effector cells (FICZ). […] IDO has long been known to play a role in Treg generation, and may be central to the mechanism of Dendritic Cell (DC)-directed Treg generation. We as well as others have previously shown that IDO mRNA can be induced by ligands of the AHR, and that the mechanisms of IDO-directed Treg generation may depend on the AHR [25]. […] As described in the Methods, naïve T-cells were sorted using magnetic bead separation, and placed in culture for 5 days with allogeneic pDCs separated from BALB/C mice. […]
A. Spleens were harvested from mice and processed in the standard fashion. […] Same assay as A, but mRNA for CYP1B1 and IDO were measured. […] Same assay as in C, but IDO mRNA was assessed. * - p≤0.05. * - p≤0.01. […]
Naive CD4^+ T cells were isolated using the CD4^+ CD62L Isolation Kit (Miltenyi Biotec, Auburn, CA) and an autoMACS. […] For quantitative PCR (qPCR) analysis, 2–5 × 10^5 cells were cultured in each well of a 96-well round-bottom plate coated with 0.5 µg/ml anti-CD3 and anti-CD28 overnight and then washed with PBS twice before seeding the cells. […]

[6] = tested on: human ARNT; test: DRE-luciferase in ARNT-deficient C4 cells transfected with ARNT; assay type: cell-based; details: ARNT or empty vector, 3 µM, 18 h

Sequence of wild-type AHR (pTarget-mAHR) (P30561 10-848): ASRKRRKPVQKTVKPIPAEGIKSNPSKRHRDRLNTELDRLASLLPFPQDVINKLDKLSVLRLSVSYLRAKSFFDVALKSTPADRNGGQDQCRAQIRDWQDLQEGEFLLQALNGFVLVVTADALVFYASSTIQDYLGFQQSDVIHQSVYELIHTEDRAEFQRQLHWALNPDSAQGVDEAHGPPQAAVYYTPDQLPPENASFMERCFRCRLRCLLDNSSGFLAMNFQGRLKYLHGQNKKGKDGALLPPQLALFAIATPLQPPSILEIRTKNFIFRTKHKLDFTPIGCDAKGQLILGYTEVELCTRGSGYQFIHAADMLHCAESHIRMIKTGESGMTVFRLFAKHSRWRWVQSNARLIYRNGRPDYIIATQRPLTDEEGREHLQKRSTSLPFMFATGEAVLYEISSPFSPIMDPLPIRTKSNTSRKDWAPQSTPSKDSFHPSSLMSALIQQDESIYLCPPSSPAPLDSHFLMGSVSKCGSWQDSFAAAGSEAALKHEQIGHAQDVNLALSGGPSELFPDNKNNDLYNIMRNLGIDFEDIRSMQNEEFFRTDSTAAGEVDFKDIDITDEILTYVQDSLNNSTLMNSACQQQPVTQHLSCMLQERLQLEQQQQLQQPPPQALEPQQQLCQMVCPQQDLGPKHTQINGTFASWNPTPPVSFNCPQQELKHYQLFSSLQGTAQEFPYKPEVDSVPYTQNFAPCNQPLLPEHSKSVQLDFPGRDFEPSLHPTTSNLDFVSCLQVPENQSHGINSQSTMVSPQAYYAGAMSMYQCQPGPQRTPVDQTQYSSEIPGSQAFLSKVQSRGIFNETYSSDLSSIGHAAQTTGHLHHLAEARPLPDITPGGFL

Structure (SMILES) | EC50 [1] | EC50 at 4 h [2] | binding affinity of AHR^d relative to AHR^b [3] | IL-17 protein by ELISA in the supernatant ([4]; higher doses) | IL-17 protein by ELISA in the supernatant ([4]; low doses) | CD39 in the FoxP3^+ T cells [5] | FoxP3 protein expression by flow cytometry [5] | DRE-luciferase activity [6]
Clc1cc2c(cc1Cl)Oc1cc(Cl)c(Cl)cc1O2 [TCDD, 2,3,7,8-tetrachlorodibenzo-p-dioxin] | 0.73 nM | 1.89 nM | one-fifteenth to one-twentieth |  |  |  |  | 
Cc1cc(C)c(C=C2C(=O)Nc3ccccc32)[nH]1 [SU5416, 3-(3,5-dimethyl-1H-pyrrol-2-ylmethylene)-1,3-dihydro-indole-2-one] |  |  |  | did not see this effect | small increase | upregulated | significantly enhanced | activity was only seen when ARNT was transfected
